Values after ≈ are worked out from the molar mass of the structure shown.
Tests used:
Format in all cases: functional
[1] = tested on: Mycobacterium tuberculosis; assay: Antitubercular activity against Mycobacterium tuberculosis harboring mmpL3
[2] = tested on: Mycobacterium tuberculosis; assay: Antimycobacterial activity against multi drug-resistant Mycobacterium tuberculosis
[3] = tested on: Mycobacterium tuberculosis; assay: Antimycobacterial activity against multi drug-resistant Mycobacterium tuberculosis H37Rv
[4] = tested on: Mycobacterium tuberculosis; assay: Antimycobacterial activity against Mycobacterium tuberculosis drug resistant clinical isolates
[5] = tested on: Mycobacterium tuberculosis; assay: Antimycobacterial activity against multi drug-resistant Mycobacterium tuberculosis expressing WecA

Cc1c(CN2CCN(C)CC2)cc(-c2ccc(Cl)cc2)n1-c1ccc(Cl)cc1 gave an MIC [1] of 0.7 to 6.2 µg/mL (≈ 1.69 to 15 µM).
CCN(CC)C/N=c1\cc2n(-c3ccc(Cl)c(Cl)c3)c3ccccc3nc-2cc1Nc1ccc(Cl)c(Cl)c1 showed an MIC [2] of 0.12 µg/mL (≈ 0.205 µM).
Cc1cc2nc(CCc3cc(Cl)cc(Cl)c3)[nH]c2cc1C showed an MIC90 [3] of 5 µM (≈ 1.6 µg/mL).
C[C@]1(COc2ccc(N3CCC(Oc4ccc(OC(F)(F)F)cc4)CC3)cc2)Cn2cc([N+](=O)[O-])nc2O1 [DELAMANID] was tested, and the MIC [4] was 0.01 µg/mL (≈ 0.0187 µM).
Work on O=[N+]([O-])c1cn2c(n1)OC[C@@H](OCc1ccc(OC(F)(F)F)cc1)C2 [PRETOMANID] yielded an MIC90 [4] of 0.531 µg/mL (≈ 1.48 µM).
Molecule CC(C)=CCC/C(C)=C/CNCCNC1C2CC3CC(C2)CC1C3 (stereo unspecified) [SQ109] has an MIC [1] of 0.16 to 0.64 µg/mL (≈ 0.484 to 1.94 µM).
Work on Cc1c(CN2CCN(c3ccc(C(F)(F)F)cc3)CC2)cc(-c2ccccc2)n1NC(=O)c1ccncc1 yielded an MIC [1] of 0.025 to 0.12 µg/mL (≈ 0.0481 to 0.231 µM).
CCCCc1ccc(NC(=O)C2=CCN(C)C(C(O[C@@H]3O[C@H](CN)[C@@H](O)[C@H]3O)[C@H]3OC(n4ccc(=O)[nH]c4=O)[C@H](O)[C@@H]3O)C(=O)N2C)cc1 (stereo partly specified) was tested, and the MIC [5] was 6.25 µg/mL (≈ 9.07 µM).
For Cc1c(CN2CCSCC2)cc(-c2ccc(F)cc2)n1-c1ccccc1, the MIC [1] was 0.5 µg/mL (≈ 1.36 µM).
CC(C)/N=c1\cc2n(-c3ccc(Cl)cc3)c3ccccc3nc-2cc1Nc1ccc(Cl)cc1 [CLOFAZIMINE] showed an MIC [2] of 1 µg/mL (≈ 2.11 µM).
Molecule CC/N=c1\cc2n(-c3ccc(C(F)(F)F)cc3)c3ccccc3nc-2cc1Nc1ccc(C(F)(F)F)cc1 has an MIC [2] of 0.25 µg/mL (≈ 0.475 µM).
